From paper PMC11602115 (Journal of Medicinal Chemistry, 2017)

What was measured:
Monkey PK (iv and oral) = format: in vivo, cynomolgus monkeys
Mouse PK (iv and oral) = format: in vivo, male CD-1 mice
[1] = iv PK in bile-duct cannulated (BDC) versus normal rats; format: in vivo, rat; details: iv administration
Description: One explanation for the prolonged exposure was the possibility of enterohepatic recirculation. […] A more definitive study was therefore conducted in bile-duct cannulated (BDC) rats.

EP1 = molecular target: T1, EP1 (Homo sapiens, UniProt P34995); experiment: Radioligand binding, EP1 ([3H]-PGE2); set-up: purchased MDS Pharma (Taiwan) and CEREP (France), contract assays; details: cloned human receptor; mean of two determinations
T1 sequence (P34995 1-402): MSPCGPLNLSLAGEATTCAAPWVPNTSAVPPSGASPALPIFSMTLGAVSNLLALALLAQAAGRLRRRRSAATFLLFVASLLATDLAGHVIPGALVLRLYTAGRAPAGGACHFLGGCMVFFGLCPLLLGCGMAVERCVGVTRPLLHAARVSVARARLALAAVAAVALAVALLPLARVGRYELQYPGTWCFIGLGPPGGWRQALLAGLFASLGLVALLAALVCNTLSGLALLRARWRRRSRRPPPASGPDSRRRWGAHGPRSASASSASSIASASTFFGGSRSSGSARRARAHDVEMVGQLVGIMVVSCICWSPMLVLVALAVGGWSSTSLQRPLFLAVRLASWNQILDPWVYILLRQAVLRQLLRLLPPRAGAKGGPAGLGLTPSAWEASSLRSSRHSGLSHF
Method: (§1) Additional (non-IP) receptor binding assays were carried out by MDS Pharma (Taiwan) and CEREP (France).

EP4 = EP4 (Homo sapiens, UniProt P35408); experiment: Radioligand binding, EP4 ([3H]-PGE2); set-up: purchased MDS Pharma (Taiwan) and CEREP (France), contract assays; details: cloned human receptor; mean of two determinations
Method: as §1

human platelet = experiment: Inhibition of ADP-induced human platelet aggregation; format: cell-based; details: aggregation induced by 2.5 μM ADP, mean of at least two determinations
Method: Such aggregated and activated platelets produce vasoactive substances such as thromboxane and serotonin that may cause harmful vasoconstriction and vascular remodeling.[13] […] This secondary assay was carried out as previously described,[14] with aggregation induced by 2.5 μM ADP in the presence or absence of IP receptor agonists.

[2] = Metabolite profile of 5c in the rat; format: in vivo; details: in vivo following dosing of 5g
Description: A taurine-conjugated metabolite was subsequently identified in bile (M1, Figure 4), which was also observed in circulating plasma, although at much lower concentrations (∼5%) compared to parent. Further, two oxidized products, one of which was also a taurine-conjugate, were identified (M2 and M3) in plasma. […] It is known that taurine can be conjugated to bile acids and these conjugates may be hydrolyzed in the gut which allows for bile acid reabsorbtion.[19]

Chain of EP4 (P35408 whole entry): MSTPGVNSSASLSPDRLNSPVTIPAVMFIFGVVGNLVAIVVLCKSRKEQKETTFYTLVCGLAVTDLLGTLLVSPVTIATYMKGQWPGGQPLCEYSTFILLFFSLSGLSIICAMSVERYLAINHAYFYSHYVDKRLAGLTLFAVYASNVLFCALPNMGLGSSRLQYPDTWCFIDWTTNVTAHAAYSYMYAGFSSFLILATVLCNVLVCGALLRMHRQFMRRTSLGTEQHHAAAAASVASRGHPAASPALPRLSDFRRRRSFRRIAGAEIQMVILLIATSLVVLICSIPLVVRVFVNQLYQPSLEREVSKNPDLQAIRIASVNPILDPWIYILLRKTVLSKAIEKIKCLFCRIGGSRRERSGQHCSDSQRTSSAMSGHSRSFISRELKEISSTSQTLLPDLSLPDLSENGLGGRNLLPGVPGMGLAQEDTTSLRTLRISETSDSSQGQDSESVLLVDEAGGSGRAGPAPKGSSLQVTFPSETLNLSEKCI

## O=C(O)COC[C@H]1CC[C@H](COC(=O)N(c2ccccc2)c2ccc(Cl)cc2)CC1 [5c, Sodium 2-(((1r,4r)-4-(((4-Chlorophenyl)(phenyl)carbamoyloxy)methyl)cyclohexyl)methoxy)acetate]
Monkey PK (iv and oral); cynomolgus monkey, plasma, oral, 0.1 mg/kg, read-out: elimination half-life in monkey (converted)
  half-life: 18 h
Monkey PK (iv and oral); monkey, iv 0.1 mg/kg
  AUC0–inf: 145 ± 95 ng·h/mL
  Clobs: 0.881 ± 0.579 L h^–1 kg^–1
  T1/2: 24.2 ± 2.1 h
Monkey PK (iv and oral); monkey, po 0.1 mg/kg
  AUC0–inf: 161 ± 116 ng·h/mL
  Cmax: 12.1 ± 3.6 ng/mL
  F: 98.7%
  T1/2: 17.5 ± 3.4 h
  Tmax: 2.67 ± 2.89 h
Monkey PK (iv and oral); monkey, po 0.5 mg/kg
  AUC0–inf: 2900 ± 1350 ng·h/mL
  Cmax: 92.8 ± 29.7 ng/mL
  F: >100%
  T1/2: 38.7 ± 21.3 h
  Tmax: 4.17 ± 3.18 h
Mouse PK (iv and oral); iv […]
  T1/2: 5.59 h
Mouse PK (iv and oral); po 9.49 mg/kg
  AUC0–inf: 11500 ng·h/mL
  Cmax: 4940 ng/mL
  F: 83.4%
  T1/2: 8.08 h
  Tmax: 0.250 h
[1]; BDC versus normal rats
  reduction in the apparent plasma half-life in BDC rats: 3 fold
[1]; rat
  concentrations in bile and urine compared to plasma: negligible
EP1
  Ki: 9600 nM

## O=C(O)COC[C@H]1CC[C@H](COC(=O)N(c2ccccc2)c2cccc(F)c2)CC1 [5g, 2-(((1r,4r)-4-(((3-Fluorophenyl)(phenyl)carbamoyloxy)methyl)cyclohexyl)methoxy)acetic Acid]
EP4
  Ki: 1200 nM
Human platelet
  IC50: 18 nM
[2]
  taurine conjugate metabolite in vivo: no analogous conjugate was observed
